Tests used:
Format in all cases: functional, cell-based
BGC-823 = test: Cytotoxicity in human BGC823 cells assessed as reduction in cell viability incubated for 72 hrs by MTT assay; settings: BGC-823, 72 h
HeLa = test: Cytotoxicity in human HeLa cells assessed as reduction in cell viability incubated for 72 hrs by MTT assay
TERT-RPE1 = test: Cytotoxicity in human hTERT-RPE1 cells assessed as reduction in cell viability incubated for 24 hrs by MTT assay; settings: RPE-1, 24 h
MDA-MB-231 = test: Cytotoxicity in human MDA-MB-231 cells assessed as reduction in cell viability incubated for 24 hrs by MTT assay; settings: MDA-MB-231, 24 h
MCF7 = test: Cytotoxicity in human MCF7 cells assessed as reduction in cell viability incubated for 24 hrs by MTT assay; settings: MCF7, 24 h
HepG2 = test: Cytotoxicity in human HepG2 cells assessed as reduction in cell viability incubated for 72 hrs by MTT assay; settings: HepG2, 72 h
HT-29 = test: Cytotoxicity in human HT-29 cells assessed as reduction in cell viability incubated for 72 hrs by MTT assay; settings: HT-29, 72 h

Compound	IC50 (BGC-823) [µM]	IC50 (TERT-RPE1) [µM]	IC50 (MDA-MB-231) [µM]	IC50 (MCF7) [µM]	other results
C[C@H]1[C@H](C)CC[C@]2(C(=O)OCCBr)CC[C@]3(C)C(=CC[C@@H]4[C@@]5(C)CC[C@H](O)C(C)(C)[C@@H]5CC[C@]43C)[C@H]12	12.4				
CC(=O)OC[C@@]1(C)[C@@H]2CC[C@]3(C)[C@H](CC=C4[C@@H]5[C@@H](C)[C@H](C)CC[C@]5(C(=O)NO)CC[C@]43C)[C@@]2(C)C[C@@H](OC(C)=O)[C@@H]1OC(C)=O					IC50 (HeLa): 1.62 µM
CCOC(=O)/C=C/c1ccc(OC(=O)[C@@]2(C)CC[C@]3(C)CC[C@]4(C)C(=CC(=O)[C@@H]5[C@@]6(C)CC[C@H](OC(=O)[C@@H](N)CCSC)C(C)(C)[C@@H]6CC[C@]54C)[C@H]3C2)c(OC)c1		16.3	5.36	8.62	
COC(=O)/C=C/c1ccc(OC)c(OC(=O)[C@@]2(C)CC[C@]3(C)CC[C@]4(C)C(=CC(=O)[C@@H]5[C@@]6(C)CC[C@H](OC(=O)[C@@H](N)CCSC)C(C)(C)[C@@H]6CC[C@]54C)[C@H]3C2)c1		8.92	4.56	8.7	
Cc1nc(C)c(COC(=O)[C@]23CCC(C)(C)C[C@H]2C2=CC[C@@H]4[C@@]5(C)CC[C@H](OC(=O)[C@H](C)N)C(C)(C)[C@@H]5CC[C@@]4(C)[C@]2(C)CC3)nc1C	4.47				IC50 (HepG2): 2.32 µM; IC50 (HeLa): 7.69 µM; IC50 (HT-29): 4.77 µM
C[C@H]1[C@H](C)CC[C@]2(C(=O)OCCCCN3CCCC3)CC[C@]3(C)C(=CC[C@@H]4[C@@]5(C)CC[C@H](O)C(C)(C)[C@@H]5CC[C@]43C)[C@H]12	7.2				
CCOC(=O)/C=C/c1ccc(OC)c(OC(=O)[C@@]2(C)CC[C@]3(C)CC[C@]4(C)C(=CC(=O)[C@@H]5[C@@]6(C)CC[C@H](OC(=O)[C@@H](N)CC[Se]C)C(C)(C)[C@@H]6CC[C@]54C)[C@H]3C2)c1		10.1	3.27	6.93	
C[C@H]1[C@H](C)CC[C@]2(C(=O)OCCN3CCOCC3)CC[C@]3(C)C(=CC[C@@H]4[C@@]5(C)CC[C@H](O)C(C)(C)[C@@H]5CC[C@]43C)[C@H]12	8.8				
CCOC(=O)/C=C/c1ccc(OC(=O)[C@@]2(C)CC[C@]3(C)CC[C@]4(C)C(=CC(=O)[C@@H]5[C@@]6(C)CC[C@H](OC(=O)[C@@H](N)CCSC)C(C)(C)[C@@H]6CC[C@]54C)[C@H]3C2)cc1		5.65	2.31	2.65	
COC(=O)/C=C/c1ccc(OC)c(OC(=O)[C@@]2(C)CC[C@]3(C)CC[C@]4(C)C(=CC(=O)[C@@H]5[C@@]6(C)CC[C@H](OC(=O)[C@@H](N)CC[Se]C)C(C)(C)[C@@H]6CC[C@]54C)[C@H]3C2)c1		9.79	3.13	5.12	
C[C@H]1[C@H](C)CC[C@]2(C(=O)OCCCN3CCCC3)CC[C@]3(C)C(=CC[C@@H]4[C@@]5(C)CC[C@H](O)C(C)(C)[C@@H]5CC[C@]43C)[C@H]12	7.6				
COC(=O)/C=C/c1ccc(OC(=O)[C@@]2(C)CC[C@]3(C)CC[C@]4(C)C(=CC(=O)[C@@H]5[C@@]6(C)CC[C@H](OC(=O)[C@@H](N)CCSC)C(C)(C)[C@@H]6CC[C@]54C)[C@H]3C2)cc1		8.48	6.43	7.24	
CCOC(=O)/C=C/c1ccc(OC(=O)[C@@]2(C)CC[C@]3(C)CC[C@]4(C)C(=CC(=O)[C@@H]5[C@@]6(C)CC[C@H](OC(=O)[C@@H](N)CC[Se]C)C(C)(C)[C@@H]6CC[C@]54C)[C@H]3C2)cc1		7.08	1.86	2.42	
CCOC(=O)/C=C/c1cccc(OC(=O)[C@@]2(C)CC[C@]3(C)CC[C@]4(C)C(=CC(=O)[C@@H]5[C@@]6(C)CC[C@H](OC(=O)[C@@H](N)CCSC)C(C)(C)[C@@H]6CC[C@]54C)[C@H]3C2)c1		6.63	1.92	5.79	
C[C@H]1[C@H](C)CC[C@]2(C(=O)OCCCCN3CCCCC3)CC[C@]3(C)C(=CC[C@@H]4[C@@]5(C)CC[C@H](O)C(C)(C)[C@@H]5CC[C@]43C)[C@H]12	5				
CC(=O)OC[C@@]1(C)[C@@H]2CC[C@]3(C)[C@H](CC=C4[C@@H]5[C@@H](C)[C@H](C)CC[C@]5(C(=O)N(C)O)CC[C@]43C)[C@@]2(C)C[C@@H](OC(C)=O)[C@@H]1OC(C)=O					IC50 (HeLa): 3.77 µM

Compound	IC50 (BGC-823) [µM]	IC50 (TERT-RPE1) [µM]	IC50 (MDA-MB-231) [µM]	IC50 (MCF7) [µM]	other results
COC(=O)/C=C/c1ccc(OC(=O)[C@@]2(C)CC[C@]3(C)CC[C@]4(C)C(=CC(=O)[C@@H]5[C@@]6(C)CC[C@H](OC(=O)[C@@H](N)CC[Se]C)C(C)(C)[C@@H]6CC[C@]54C)[C@H]3C2)c(OC)c1		4.93	1.37	1.88	
Cc1nc(C)c(COC(=O)[C@]23CCC(C)(C)C[C@H]2C2=CC[C@@H]4[C@@]5(C)CC[C@H](OC(=O)[C@@H](N)CO)C(C)(C)[C@@H]5CC[C@@]4(C)[C@]2(C)CC3)nc1C	4.89				IC50 (HepG2): 4.78 µM; IC50 (HeLa): 5.21 µM; IC50 (HT-29): 4.82 µM
COC(=O)/C=C/c1ccc(OC(=O)[C@@]2(C)CC[C@]3(C)CC[C@]4(C)C(=CC(=O)[C@@H]5[C@@]6(C)CC[C@H](OC(=O)[C@@H](N)CC[Se]C)C(C)(C)[C@@H]6CC[C@]54C)[C@H]3C2)cc1		6.33	6.27	6.02	
COC(=O)/C=C/c1cccc(OC(=O)[C@@]2(C)CC[C@]3(C)CC[C@]4(C)C(=CC(=O)[C@@H]5[C@@]6(C)CC[C@H](OC(=O)[C@@H](N)CCSC)C(C)(C)[C@@H]6CC[C@]54C)[C@H]3C2)c1		8.49	3.54	7.2	
Cc1nc(C)c(COC(=O)[C@]23CCC(C)(C)C[C@H]2C2=CC[C@@H]4[C@@]5(C)CC[C@H](OC(=O)[C@@H]6CCCN6)C(C)(C)[C@@H]5CC[C@@]4(C)[C@]2(C)CC3)nc1C	4.97				IC50 (HepG2): 2.39 µM; IC50 (HeLa): 6.75 µM; IC50 (HT-29): 3.21 µM
C[C@H]1[C@H](C)CC[C@]2(C(=O)OCCCCN3CCOCC3)CC[C@]3(C)C(=CC[C@@H]4[C@@]5(C)CC[C@H](O)C(C)(C)[C@@H]5CC[C@]43C)[C@H]12	6.5				
C[C@H]1[C@H](C)CC[C@]2(C(=O)OCCCN3CCCCC3)CC[C@]3(C)C(=CC[C@@H]4[C@@]5(C)CC[C@H](O)C(C)(C)[C@@H]5CC[C@]43C)[C@H]12	7.2				
CCOC(=O)/C=C/c1ccc(OC(=O)[C@@]2(C)CC[C@]3(C)CC[C@]4(C)C(=CC(=O)[C@@H]5[C@@]6(C)CC[C@H](OC(=O)[C@@H](N)CC[Se]C)C(C)(C)[C@@H]6CC[C@]54C)[C@H]3C2)c(OC)c1		12.3	3.49	8.45	
COC(=O)/C=C/c1ccc(OC(=O)[C@@]2(C)CC[C@]3(C)CC[C@]4(C)C(=CC(=O)[C@@H]5[C@@]6(C)CC[C@H](OC(=O)[C@@H](N)CCSC)C(C)(C)[C@@H]6CC[C@]54C)[C@H]3C2)c(OC)c1		10.4	3.52	6	
CCOC(=O)/C=C/c1ccc(OC)c(OC(=O)[C@@]2(C)CC[C@]3(C)CC[C@]4(C)C(=CC(=O)[C@@H]5[C@@]6(C)CC[C@H](OC(=O)[C@@H](N)CCSC)C(C)(C)[C@@H]6CC[C@]54C)[C@H]3C2)c1		12.5	4.67	8.81	
C[C@H]1[C@H](C)CC[C@]2(C(=O)OCCCN3CCOCC3)CC[C@]3(C)C(=CC[C@@H]4[C@@]5(C)CC[C@H](O)C(C)(C)[C@@H]5CC[C@]43C)[C@H]12	7.3				
CCOC(=O)/C=C/c1cccc(OC(=O)[C@@]2(C)CC[C@]3(C)CC[C@]4(C)C(=CC(=O)[C@@H]5[C@@]6(C)CC[C@H](OC(=O)[C@@H](N)CC[Se]C)C(C)(C)[C@@H]6CC[C@]54C)[C@H]3C2)c1		3.7	1.53	2.57	
COC(=O)/C=C/c1cccc(OC(=O)[C@@]2(C)CC[C@]3(C)CC[C@]4(C)C(=CC(=O)[C@@H]5[C@@]6(C)CC[C@H](OC(=O)[C@@H](N)CC[Se]C)C(C)(C)[C@@H]6CC[C@]54C)[C@H]3C2)c1		4.55	2.46	3.48	
C[C@H]1[C@H](C)CC[C@]2(C(=O)OCCN3CCCC3)CC[C@]3(C)C(=CC[C@@H]4[C@@]5(C)CC[C@H](O)C(C)(C)[C@@H]5CC[C@]43C)[C@H]12	4.5				
C[C@H]1[C@H](C)CC[C@]2(C(=O)OCCCCBr)CC[C@]3(C)C(=CC[C@@H]4[C@@]5(C)CC[C@H](O)C(C)(C)[C@@H]5CC[C@]43C)[C@H]12 [BROMOBUTYL-3BETA-HYDROXY-URS-12-EN-28-OATE]	10				
C[C@H]1[C@H](C)CC[C@]2(C(=O)OCCCBr)CC[C@]3(C)C(=CC[C@@H]4[C@@]5(C)CC[C@H](O)C(C)(C)[C@@H]5CC[C@]43C)[C@H]12 [BROMOPROPYL-3BETA-HYDROXY-URS-12-EN-28-OATE]	6.5				

— ChEMBL document CHEMBL4270495, “Oleanane-, ursane-, and quinone methide friedelane-type triterpenoid derivatives: Recent advances in cancer treatment” (Eur J Med Chem, 2017)
